For one data set, the system named is skin of nude adult mice. The data set can be described thus: Dermal capillary vessel diameters, mouse skin. It is filed as in vivo. Conditions: topically applied. Here is the method: Creams containing 5% and 2.5% w/w idebenone (IDB) in a neutral phase were prepared. Said creams and a cream having an identical formulation but without idebenone were applied on nude adult mice with 3 months of age. The cream with idebenone was applied on the right half of the body of the animals and the control cream on the left half according to the scheme detailed below. The animals were sacrificed 1, 2, 3 or 4 hours after applying the cream (p.a.). • Batch A: animal treated with 5% IDB (1 hour p.a.) • Batch B: animal treated with 2.5% IDB (1 hour p.a.) • Batch C: animal treated with 5% IDB (2 hours p.a.) • Batch D: animal treated with 2.5% IDB (2 hours p.a.) • Batch E: animal treated with 5% IDB (3 hours p.a.) • Batch F: animal treated with 2.5% IDB (3 hours p.a.) • Batch G: animal treated with 5% IDB (4 hours p.a.) • Batch H: animal treated with 2.5% IDB (4 hours p.a.)
Morphological and morphometric studies: Thickness of the epidermis, the horny layer, the papillary dermis and reticular dermis was measured in at least 10 different points, the result being expressed as the average of the 10 measurements. Capillary vessel diameter was also measured in at least 10 points, expressing them by means of their average. The measurements were carried out using a Quantimet 500+ (Leica) image processing equipment. […]

Data set [1] can be described thus: Idebenone dosing in skin cuts by gas chromatography (penetration). In kind it is in vivo, mice. Conditions: mouse skin, topical cream. Here is the method:
Creams containing 5% and 2.5% w/w idebenone (IDB) in a neutral phase were prepared. Said creams and a cream having an identical formulation but without idebenone were applied on nude adult mice with 3 months of age. The cream with idebenone was applied on the right half of the body of the animals and the control cream on the left half according to the scheme detailed below. The animals were sacrificed 1, 2, 3 or 4 hours after applying the cream (p.a.). • Batch A: animal treated with 5% IDB (1 hour p.a.) • Batch B: animal treated with 2.5% IDB (1 hour p.a.) • Batch C: animal treated with 5% IDB (2 hours p.a.) • Batch D: animal treated with 2.5% IDB (2 hours p.a.) • Batch E: animal treated with 5% IDB (3 hours p.a.) • Batch F: animal treated with 2.5% IDB (3 hours p.a.) • Batch G: animal treated with 5% IDB (4 hours p.a.) • Batch H: animal treated with 2.5% IDB (4 hours p.a.) […]
Idebenone dosing by gas chromatography: The treated and control skin sections were placed epidermis side down on a cryostat stage and 300 micron thick sections parallel to the surface were obtained in such a manner so as to obtain a deep cut, a surface cut and a medium cut. […] Each extract was analyzed by gas chromatography using a Hewlett Packard 5890 gas chromatograph, using a capillary column with methyl silicone as stationary phase (HP-IMS, 25 m×0.2 mm, 0.33μ thick film). […]

Another data set relates to SK-MEL-28. As to the kind of experiment: Cytopathic effects on cell cultures, inverted microscope. In kind it is cell-based, human. Here is the method:
An experiment similar to the one described in the previous example was designed for the purpose of establishing whether idebenone inhibits melanogenesis in cells in culture, but in this case the cells were treated for only 1 day, whereas the results were evaluated on the third day.
An experiment similar to the one described in the previous example was designed for the purpose of establishing whether idebenone inhibits melanogenesis in cells in culture, but in this case the cells were treated for 2 days and the results were evaluated on the fourth day.
An experiment similar to the one described in the previous example was designed for the purpose of establishing whether idebenone inhibits melanogenesis in cells in culture, but in this case the cells were treated for 5 days and the results were evaluated on the fifth day.
A general note: Protection from cytopathic effect is a common read-out in antiviral testing.

As to `COC1=C(OC)C(=O)C(CCCCCCCCCCO)=C(C)C1=O` [idebenone, 6-(10-hydroxydecyl)-2,3-dimethoxy-5-methyl-1,4-benzoquinone], the “Effect on microcirculation vascular diameters” value with skin of nude adult mice is recorded as “does not substantially modify microcirculation vascular diameters”. For the same molecule, in data set [1], the “Penetration of IDB in the skin” value was “penetrates the skin and is retained up to two hours after its application in the most superficial sections”. For the same molecule, the Cytopathic effects result in the data set on SK-MEL-28 (remaining dilutions (−2 to −6), treated 1 day) is “no cytopathic effect whatsoever”; with SK-MEL-28 (−1 dilution, treated 1 day), “cytopathic effects”; in the data set with SK-MEL-28 (−4, −5 and −6 dilutions, Example 8), “No cytopathic effect was observed”; with SK-MEL-28 (−4, −5 and −6 dilutions, treated 2 days), “No cytopathic effect was observed”.

Source of the values: patent publication US20090060851A1, “USE OF IDEBENONE FOR THE PREPARATION OF A TOPICALLY-APPLIED DEPIGMENTATION COMPOSITION AND CORRESPONDING COMPOSITION” (priority 2005, published 2009).
